Patent US20030199571A1, “(Hetero) Bicyclymethanesulfonylamino-substituted hydroxamic acid derivatives” (priority 1999, published 2003)

Molecular target: T1, human recombinant collagenase (Homo sapiens, UniProt P03956)
T1 construct: made in house; host or cells: E. coli
T1 sequence (P03956 100-469): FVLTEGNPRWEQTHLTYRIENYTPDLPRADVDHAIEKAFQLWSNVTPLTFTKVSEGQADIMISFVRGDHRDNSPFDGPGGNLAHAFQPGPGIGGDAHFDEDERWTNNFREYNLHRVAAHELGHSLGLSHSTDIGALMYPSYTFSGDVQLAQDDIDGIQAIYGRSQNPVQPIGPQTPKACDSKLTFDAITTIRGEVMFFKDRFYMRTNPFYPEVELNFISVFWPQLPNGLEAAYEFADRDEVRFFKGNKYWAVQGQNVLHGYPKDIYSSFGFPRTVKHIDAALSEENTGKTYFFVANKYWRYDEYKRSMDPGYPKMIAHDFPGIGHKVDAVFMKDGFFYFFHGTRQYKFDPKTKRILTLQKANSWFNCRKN
Test: Collagenase inhibition assay (Cawston and Barrett)
Assay type: biochemical
Details: acetylated 3H type 1 bovine collagen, 37° C., 18 h
Method: Procedure 2: The ability of test compounds to inhibit collagenase was investigated using the following procedure.
Collagenase Inhibition Assay:
The potency of compounds to act as inhibitors of collagenase was determined by the method of Cawston and Barrett (Anal. Biochem. 99, 340-345, 1979), hereby incorporated by reference, whereby a 1 mM solution of the inhibitor being tested or dilutions thereof, was incubated at 37° C. for 18 h with collagen and human recombinant collagenase, from synovial fibroblasts cloned, expressed and purified from E. coli, (buffered with 150 mM Tris, pH 7.6, containing 15 mM calcium chloride, 0.05% Brij 35, 200 mM sodium chloride and 0.02% sodium azide). The collagen was acetylated ^3H type 1 bovine collagen prepared by the method of Cawston and Murphy (methods in Enzymology 80, 711,1981) The samples were centrifuged to sediment undigested collagen and an aliquot of the radioactive supernatant removed for assay on a scintillation counter as a measure of hydrolysis. The collagenase activity in the presence of 1 mM inhibitor, or dilution thereof, was compared to activity in a control devoid of inhibitor and the results reported as that concentration effecting 50% of the collagenase (IC50).

| SMILES | IC50 [µM] |
| --- | --- |
| O=C(NO)[C@@H](Cc1ccccc1)NS(=O)(=O)Cc1ccc2ccccc2c1 [Example 5] | ≥ 10 |
| CC(C)(C)C[C@@H](NS(=O)(=O)Cc1ccc2ccccc2c1)C(=O)NO [Example 6] | ≥ 10 |
| O=C(NO)[C@@H](CC1CCCCC1)NS(=O)(=O)Cc1ccc2ccccc2c1 [Example 9] | ≥ 10 |
| O=C(NO)[C@H](NS(=O)(=O)Cc1ccc2ccccc2c1)c1ccc(O)cc1 [Example 12] | ≥ 10 |
| O=C(NO)[C@@H](Cc1csc2ccccc12)NS(=O)(=O)Cc1ccc2ccccc2c1 [Example 14] | ≥ 10 |
| O=C(NO)[C@H](NS(=O)(=O)Cc1ccc2sccc2c1)c1ccccc1 [Example 28, (R)-2-(Benzo[b]thiophen-5-ylmethanesulfonylamino)-N-hydroxy-2-phenylacetamide] | ≥ 10 |
| O=C(NO)[C@H](NS(=O)(=O)C[C@@H]1CCc2ccccc2C1)c1ccccc1 [Example 29, (R)-2-Phenyl-2-[(R)-1-(1,2,3,4-tetrahydronaphthalen-2-yl)methanesulfonylamino]-N-hydroxyacetamide] | ≥ 10 |
| O=C(NO)[C@@H](Cc1c[nH]c2ccccc12)NS(=O)(=O)Cc1ccc2sccc2c1 [Example 31, (R)-2-(Benzo[b]thiophen-5-ylmethanesulfonylamino)-N-hydroxy-3-(1H-indol-3-yl) propionamide.] | ≥ 10 |
| O=C(NO)[C@H](NS(=O)(=O)Cc1ccc2sccc2c1)c1ccc(O)cc1 [Example 33] | ≥ 10 |
| O=C(NO)[C@@H](CCc1ccccc1)NS(=O)(=O)Cc1ccc2sccc2c1 [Example 38, (R)-2-(Benzo[b]thiophen-5-ylmethanesulfonylamino)-N-hydroxy-4-phenyl-butyramide] | ≥ 10 |
| CC(C)(C)C[C@@H](NS(=O)(=O)Cc1ccc2sccc2c1)C(=O)NO [Example 42] | ≥ 10 |
| CC(C)(C)[C@@H](NS(=O)(=O)Cc1ccc2sccc2c1)C(=O)NO [Example 43] | ≥ 10 |
| CC(C)c1ccc([C@@H](NS(=O)(=O)Cc2ccc3sccc3c2)C(=O)NO)cc1 [Example 56, (R)-2-(Benzo[b]thiophen-5-ylmethanesulfonylamino)-2-(4-isopropylphenyl)-N-hydroxy-acetamide] | ≥ 10 |
| O=C(NO)[C@@H](CNS(=O)(=O)Cc1ccccc1)NS(=O)(=O)Cc1ccc2sccc2c1 [Example 69, (R)-2-(Benzo[b]thiophen-5-ylmethanesulfonylamino)-N-hydroxy-3-(phenylmethanesulfonylamino)-propionamide] | ≥ 10 |
